According to EP0543555A1, “Phosphorylated flavanoids in the treatment of viral diseases” (MERRELL DOW PHARMACEUTICALS INC., priority 1991, dated 1993):
Several values for one entry are separate records, joined by “and”; a condition that tells them apart may be missing. Equal values may be shown once. Read-outs that look alike come from different tables or passages of the source.

How the values were obtained:
HIV-1 [1] = conditions: for Mean Syncytial Counts Day 3 % / Mean Syncytial Counts Day 4 %: % of virus control; for Mean Syncytial Counts Day 4 %: 5760 min; for p24: day 4 supernatant
Protocol: (§1) JM cells were infected with HIV-1 for 2 hours at room temperature. The cells were then washed and distributed into duplicate wells containing different concentrations of the test compound and incubated at 37°C. On days 3 and 4 the cells were observed and the syncytia counted and on day 4 the supernatant fluid was also harvested for detection of p24 viral core antigen using the Abbott EIA.

[2] = tested on: Herpes type 2 strain HG52; assay: Herpes type 2 plaque reduction assay (Vero cells); assay type: cell-based; conditions: for %: % of virus control
Description: Cell Line: Vero Virus: Herpes type 2 strain HG52

CMV = assay: Anti-CMV plaque reduction assay (AD169 strain, MRC 5 cell line); assay type: cell-based, cytomegalovirus (CMV); conditions: for %: % of virus control
Protocol: Experiments were carried out whereby phosphorylated hesperidin was present at the following times of the virus (AD169 strain, MRC 5 cell line) growth cycle. • 1. During adsorption and after • 2. During adsorption, then not • 3. Only added after adsorption A virus control with no drug was present on each plate.

HIV-1 [3] = assay: microbe, parasite or virus in culture
Protocol: as §1

[4] = First trial, during adsorption and incubation, 10 µg/ml
[5] = First trial, during adsorption and incubation, 50 µg/ml
[6] = First trial, during adsorption and incubation, 100 µg/ml
[7] = First trial, during adsorption, 10 µg/ml
[8] = First trial, during adsorption, 50 µg/ml
[9] = First trial, during adsorption, 100 µg/ml
[10] = Second trial, during adsorption and incubation, 125 µg/ml
[11] = Second trial, during adsorption and incubation, 250 µg/ml
[12] = Second trial, during adsorption and incubation, 500 µg/ml
[13] = Second trial, during adsorption, 500 µg/ml
[14] = Second trial, incubation only, 125 µg/ml
[15] = Second trial, incubation only, 250 µg/ml
[16] = Second trial, incubation only, 500 µg/ml
[17] = First trial, added before and after adsorption, 31 µg/ml
[18] = Second trial, during and after adsorption, 31 µg/ml
[19] = Second trial, during and after adsorption, 62 µg/ml
[20] = Third trial, after adsorption only, 3.75 µg/ml
[21] = Third trial, after adsorption only, 7.5 µg/ml
[22] = Third trial, after adsorption only, 15 µg/ml
[23] = Third trial, after adsorption only, 31µg/ml
[24] = Third trial, after adsorption only, 62 µg/ml
[25] = Third trial, during adsorption only, 3.75 µg/ml
[26] = Third trial, during adsorption only, 7.5 µg/ml
[27] = Third trial, during adsorption only, 15 µg/ml
[28] = Third trial, during adsorption only, 31µg/ml
[29] = Third trial, during and after adsorption, 3.75 µg/ml
[30] = Third trial, during and after adsorption, 7.5 µg/ml
[31] = Third trial, during and after adsorption, 15 µg/ml
[32] = Third trial, during and after adsorption, 31µg/ml
[33] = Third trial, during and after adsorption, 62 µg/ml
[34] = Human immunodeficiency virus 1, 72 h, read-out: Mean Syncytial Counts Day 3 %
[35] = Human immunodeficiency virus 1, 96 h, read-out: Mean Syncytial Counts Day 4 %

Phosphorylated Hesperidin
Mean Syncytial Counts Day 3 % (HIV-1 [1]; Conc 0.1 µg/ml, 4320 min): 100%
Mean Syncytial Counts Day 4 % (HIV-1 [1]; Conc 0.1 µg/ml): 100%
Mean Syncytial Counts Day 3 % (HIV-1 [1]; Conc 0.3 µg/ml, 4320 min): 100%
Mean Syncytial Counts Day 4 % (HIV-1 [1]; Conc 0.3 µg/ml): 100%
Mean Syncytial Counts Day 3 % (HIV-1 [1]; Conc 1 µg/ml, 4320 min): 100%
Mean Syncytial Counts Day 4 % (HIV-1 [1]; Conc 1 µg/ml): 100%
Mean Syncytial Counts Day 3 (HIV-1 [1]; Conc 3 µg/ml): As VC
Mean Syncytial Counts Day 3 % (HIV-1 [1]; Conc 3 µg/ml): 100%
Mean Syncytial Counts Day 4 % (HIV-1 [1]; Conc 3 µg/ml): 100%
Mean Syncytial Counts Day 3 (HIV-1 [1]; Conc 10 µg/ml): 51
Mean Syncytial Counts Day 4 (HIV-1 [1]; Conc 10 µg/ml): As VC
Mean Syncytial Counts Day 3 % (HIV-1 [1]; Conc 10 µg/ml, 4320 min): 89%
Mean Syncytial Counts Day 4 % (HIV-1 [1]; Conc 10 µg/ml): 100%
Mean Syncytial Counts Day 3 (HIV-1 [1]; Conc 30 µg/ml): 9
Mean Syncytial Counts Day 4 (HIV-1 [1]; Conc 30 µg/ml): 45
Mean Syncytial Counts Day 3 % (HIV-1 [1]; Conc 30 µg/ml, 4320 min): 16%
Mean Syncytial Counts Day 4 % (HIV-1 [1]; Conc 30 µg/ml): 48%
Mean Syncytial Counts Day 3 (HIV-1 [1]; Conc 100 µg/ml): 0
Mean Syncytial Counts Day 4 (HIV-1 [1]; Conc 100 µg/ml): 5
Mean Syncytial Counts Day 3 % (HIV-1 [1]; Conc 100 µg/ml, 4320 min): 0%
Mean Syncytial Counts Day 4 % (HIV-1 [1]; Conc 100 µg/ml): 5%
No. of Plaques [2, 4]: 253 and 243
No. of Plaques Average [2, 4]: 248
% [2, 4]: 100%
No. of Plaques [2, 5]: 112 and 132
No. of Plaques Average [2, 5]: 122
% [2, 5]: 54%
No. of Plaques [2, 6]: 95 and 62
No. of Plaques Average [2, 6]: 78.5
% [2, 6]: 35%
No. of Plaques [2, 7]: 211 and 231
No. of Plaques Average [2, 7]: 221
% [2, 7]: 98%
No. of Plaques [2, 8]: 154 and 146
No. of Plaques Average [2, 8]: 150
% [2, 8]: 66%
No. of Plaques [2, 9]: 187 and 144
No. of Plaques Average [2, 9]: 166
% [2, 9]: 73%
No. of Plaques [2, 10]: 58 and 71
No. of Plaques Average [2, 10]: 64.5
% [2, 10]: 46%
No. of Plaques [2, 11]: 11 and 10
No. of Plaques Average [2, 11]: 10.5
% [2, 11]: 7.5%
No. of Plaques [2, 12]: None
No. of Plaques Average [2, 12]: 0
% [2, 12]: 0%
No. of Plaques [2, 13]: 50 and 58
No. of Plaques Average [2, 13]: 54
% [2, 13]: 38%
No. of Plaques [2, 14]: 50 and 61
No. of Plaques Average [2, 14]: 55.5
% [2, 14]: 39%
No. of Plaques [2, 15]: 16 and 11
No. of Plaques Average [2, 15]: 13.5
% [2, 15]: 9.6%
No. of Plaques [2, 16]: None
No. of Plaques Average [2, 16]: 0
% [2, 16]: 0%
No. of Plaques (CMV; [17]): 27 and 20 and 24
No. of Plaques Average (CMV; [17]): 24
% (CMV; [17]): 9.9%
No. of Plaques (CMV; First trial, added before and after adsorption, 125 µg/ml): No plaques
No. of Plaques (CMV; First trial, added before and after adsorption, 250 µg/ml): totally blocked
No. of Plaques (CMV; Second trial, after adsorption only, 31 µg/m): As virus control
No. of Plaques (CMV; Second trial, after adsorption only, 62 µg/ml): As virus control
No. of Plaques (CMV; Second trial, after adsorption only, 125 µg/ml): As virus control
No. of Plaques (CMV; Second trial, after adsorption only, 250 µg/ml): None
No. of Plaques (CMV; Second trial, after adsorption only, 500 µg/ml): None
No. of Plaques (CMV; [18]): 35 and 40
No. of Plaques Average (CMV; [18]): 32.5
% (CMV; [18]): 17%
No. of Plaques (CMV; [19]): 35 and 40
No. of Plaques Average (CMV; [19]): 37.5
% (CMV; [19]): 22%
No. of Plaques (CMV; Second trial, during and after adsorption, 125 µg/ml, estimate): ~40 (estimate)
No. of Plaques (CMV; Second trial, during and after adsorption, 250 µg/ml): None
No. of Plaques (CMV; Second trial, during and after adsorption, 500 µg/ml): None
No. of Plaques (CMV; [20]): As v.c.
% (CMV; [20]): 100%
No. of Plaques (CMV; [21]): As v.c
% (CMV; [21]): 100%
No. of Plaques (CMV; [22]): 120 125 131
No. of Plaques Average (CMV; [22]): 125
plaque size (remark in No. of Plaques cell) (CMV; [22]): much smaller plaques
% (CMV; [22]): 66%
No. of Plaques (CMV; [23]): 119 125 128
No. of Plaques Average (CMV; [23]): 124
% (CMV; [23]): 65%
No. of Plaques Average (CMV; [24]): 89
plaque size (remark in No. of Plaques cell) (CMV; [24]): smaller plaques
% (CMV; [24]): 47%
No. of Plaques (CMV; [25]): As v.c.
% (CMV; [25]): 100%
No. of Plaques (CMV; [26]): As v.c.
No. of Plaques Average (CMV; [26]): 141
% (CMV; [26]): 100%
No. of Plaques (CMV; [27]): 148 140 135
% (CMV; [27]): 74%
No. of Plaques (CMV; [28]): 120 115 111
No. of Plaques Average (CMV; [28]): 115
plaque size (remark in No. of Plaques cell) (CMV; [28]): much smaller plaques
% (CMV; [28]): 61%
state of monolayer (printed in place of No. of Plaques) (CMV; Third trial, during adsorption only, 62 µg/ml, MRC 5 cell line): monolayer destroyed
No. of Plaques (CMV; [29]): 128 125 121
No. of Plaques Average (CMV; [29]): 125
% (CMV; [29]): 66%
No. of Plaques (CMV; [30]): 119 115 103
No. of Plaques Average (CMV; [30]): 122
% (CMV; [30]): 64%
No. of Plaques Average (CMV; [31]): 76
% (CMV; [31]): 40%
No. of Plaques Average (CMV; [32]): 60
% (CMV; [32]): 32%
No. of Plaques Average (CMV; [33]): 48
% (CMV; [33]): 25%

Nc1ccn([C@H]2CC[C@@H](CO)O2)c(=O)n1 [ddC, reference compound]
activity at 0.1 µM (HIV-1 [3]; [34]): 37%
activity at 0.3 µM (HIV-1 [3]; [34]): 0%
activity at 1 µM (HIV-1 [3]; [34]): 0%
activity at 3 µM (HIV-1 [3]; [34]): 0%
activity at 10 µM (HIV-1 [3]; [34]): 0%
activity at 0.1 µM (HIV-1 [3]; [35]): 37%
activity at 0.3 µM (HIV-1 [3]; [35]): 7%
activity at 1 µM (HIV-1 [3]; [35]): 0%
activity at 3 µM (HIV-1 [3]; [35]): 0%
activity at 10 µM (HIV-1 [3]; [35]): 0%
Mean Syncytial Counts Day 3 (HIV-1 [1]; Conc 0.1 µM): 21
Mean Syncytial Counts Day 4 (HIV-1 [1]; Conc 0.1 µM): 31
Mean Syncytial Counts Day 3 (HIV-1 [1]; Conc 0.3 µM): 0
Mean Syncytial Counts Day 4 (HIV-1 [1]; Conc 0.3 µM): 6
p24 (HIV-1 [1]; Conc 0.3 µM): 341 pg/mL
Mean Syncytial Counts Day 3 (HIV-1 [1]; Conc 1 µM): 0
Mean Syncytial Counts Day 4 (HIV-1 [1]; Conc 1 µM): 0
p24 (HIV-1 [1]; Conc 1 µM): 199 pg/mL
Mean Syncytial Counts Day 3 (HIV-1 [1]; Conc 3 µM): 0
Mean Syncytial Counts Day 4 (HIV-1 [1]; Conc 3 µM): 0
p24 (HIV-1 [1]; Conc 3 µM): 98 pg/mL
Mean Syncytial Counts Day 3 (HIV-1 [1]; Conc 10 µM): 0
Mean Syncytial Counts Day 4 (HIV-1 [1]; Conc 10 µM): 0
p24 (HIV-1 [1]; Conc 10 µM): 132 pg/mL
